In publication PMC5515887, “Ruthenium-conjugated chrysin analogues modulate platelet activity, thrombus formation and haemostasis with enhanced efficacy” (Scientific Reports, 2017):

What was measured:
human washed platelets = assay: CRP-XL-induced aggregation of human washed platelets (optical aggregometry); format: cell-based; settings: CRP-XL 0.5 μg/mL
Description: To determine the effects of chrysin and thio-chrysin and their Ru-complexes in the modulation of platelet activation, aggregation assays were performed using cross-linked collagen-related peptide (CRP-XL) as a platelet agonist, by optical aggregometry. Firstly, to determine the effects of chrysin and its derivatives on isolated platelets, aggregation assays were performed using human washed platelets (devoid of plasma proteins and other blood cells).
Figure 2 Effects of chrysin and its derivatives in washed platelet aggregation. […] The aggregation traces shown are representative of three separate experiments.
(§1) The preparation of human platelets and aggregation assays were performed using standard protocols as described by us previously, [16]. Briefly, human blood was collected in 3.2% citrate containing vacutainers via venepuncture from healthy, aspirin-free individuals with informed consent in accordance with the methods approved by the University of Reading Research Ethics Committee. All methods were performed in accordance with the relevant institutional and national guidelines and regulations. Blood samples were centrifuged at 102 g for 20 minutes at room temperature to separate the PRP, which was used in aggregation, flow cytometry, static platelet adhesion, calcium mobilisation and clot retraction assays. For the preparation of washed platelets, 50 mL of blood samples were mixed with 7.5 mL of ACD (acid citrate dextrose) (20 g/L glucose, 25 g/L sodium citrate and 15 g/L citric acid) and centrifuged at 102 g for 20 minutes at room temperature. The PRP was carefully aspirated from the other blood cells prior to mixing with 3 mL of ACD and centrifuging at 1413 g for 10 minutes at room temperature. The resulting platelet pellet was re-suspended in modified Tyrodes-HEPES buffer (2.9 mM KCl, 134 mM NaCl, 0.34 mM Na2HPO4.12H20, 1 mM MgCl2, 12 mM NaHCO3, 20 mM HEPES, pH 7.3) and washed by centrifuging again at 1413 g for 10 minutes. The resulting platelet pellet was suspended in modified Tyrodes-HEPES buffer at a density of 4 × 10^8 cells/mL for aggregation, dense granule secretion, cellular uptake studies and calcium mobilisation assays. Human platelet aggregation was performed using CRP-XL as an agonist in the presence and absence of various concentrations of chrysin and its synthetic derivatives by optical aggregometry. A vehicle control [DMSO at a concentration of less than 0.1% (v/v)] was included in all the experiments. Dense granule secretion in platelets was determined by measuring the ATP release using the luciferin-luciferase reagent by lumi-aggregometry (Chrono-Log, USA). SDS-PAGE and immunoblotting analysis were performed using standard protocols. The rabbit anti-phospho-specific antibodies for human AKT pS473, FAK pY397 and Src pY527 were obtained from Abcam, UK and rabbit anti-human 14-3-3ζ (Santa Cruz Biotechnology, USA) was used to detect protein 14-3-3ζ as a loading control in immunoblot assays. The Cy5-conjugated goat anti-rabbit IgG (Life technologies, UK) was used as the secondary antibody.

[1] = test system: human platelet-rich plasma (PRP); assay: CRP-XL-induced platelet aggregation in human platelet-rich plasma (optical aggregometry); format: cell-based; settings: PRP, CRP-XL 0.5 μg/mL
Description: Therefore, to determine the effects of various concentrations of chrysin and its derivatives in the presence of plasma proteins, aggregation assays were performed using human platelet-rich plasma (PRP) and 0.5 μg/mL CRP-XL.
Figure 3 Impact of chrysin and its derivatives on platelet activation in platelet-rich plasma. […] The platelet aggregation was monitored for 5 minutes. The traces shown are representative of three separate experiments.
as §1

[2] = test system: α-granule secretion in platelets; assay: P-selectin exposure by flow cytometry (marker for α-granule secretion); format: cell-based, human; settings: PRP; CRP-XL 0.5 μg/mL
Description: Platelets primarily contain two types of granules (α- and dense granules) and the activation of platelets releases the granule contents to the external environment, where they play important roles in the stimulation of additional platelets and their recruitment to the growing thrombus. […] However, chrysin affected α-granule secretion only at a minimum concentration of 50 μM in platelets.
Figure 5 Chrysin and its derivatives affect granule secretion in platelets. […] The level of P-selectin (as a marker for α-granule secretion) was quantified using PECy5-labelled anti-human P-selectin antibodies by flow cytometry. […] R represents ‘resting’ platelets. […] Platelets were then activated with 0.5 μg/mL CRP-XL and the ATP release was monitored for 5 minutes by lumi-aggregometry. The traces shown are representative of three separate experiments.

[3] = test system: inside-out signalling to integrin αIIbβ3; settings: PRP; CRP-XL 0.5 μg/mL
Description: The level of fluorescence obtained with vehicle control was taken as 100% to calculate the extent of inhibition in chrysin and its derivatives-treated samples. R represents ‘resting’ platelets. Cumulative data represent mean ± S.D. (n = 4). […] Following incubation, clotting was initiated by the addition of 1 U/mL thrombin and the clot retraction was monitored for three hours. The remaining clot weight at three hours was measured to analyse the extent of retraction process. The image shown on the right is representative of four separate experiments. *Indicates significance with respect to controls and ^#indicates significance with respect to the respective chrysin concentrations; p values shown (*^,# p < 0.05, **^,## p < 0.01 and ***^,### p < 0.001) are as calculated by one-way ANOVA using Graphpad Prism.
The platelets (PRP) were treated with a vehicle control [0.1% (v/v) DMSO] or with different concentrations of chrysin and its synthetic derivatives prior to activation with CRP-XL (0.5 µg/mL). The levels of fibrinogen binding and P-selectin exposure were measured using FITC-labelled anti-human fibrinogen antibodies (Dako, UK) and PECy5-labelled CD62P antibodies (BD Biosciences, UK), respectively. The median fluorescence intensity was used to assess the levels of fibrinogen binding and P-selectin exposure on the platelet surface. The level of fluorescence obtained with the vehicle control was taken as 100% when compared with the treated samples.

[4] = test system: outside-in signalling by integrin αIIbβ3; assay: Clot retraction assay (outside-in signalling by integrin αIIbβ3); format: cell-based, human; settings: PRP; 50 μM compound; 1 U/mL thrombin; three hours
Description: R represents ‘resting’ platelets.
Following fibrinogen binding, integrin αIIbβ3 triggers signalling into the platelets in order to induce clot retraction and promote wound healing. This also represents a late downstream signalling event in the platelet activation process. To determine whether chrysin and its derivatives affect outside-in signalling by integrin αIIbβ3, a clot retraction assay was performed. […] At three hours, the clot obtained with the vehicle control [0.1% (v/v) DMSO] retracted to around 50 mg.
PRP (200 µL) was mixed with 5 µL of red blood cells and the final volume was made to 950 µL with modified Tyrodes-HEPES buffer in the presence and absence of various concentrations of chrysin or its synthetic derivatives. Clot formation was initiated by adding 1 U/mL (50 µL) thrombin. A glass capillary was placed in middle of the tube and the clot retraction was observed over a period of 3 hours at room temperature. Clot weight was measured as a marker for clot retraction after 3 hours.

**Q.** Which “effect on CRP-XL-induced platelet aggregation in washed platelets” value (from here on “effect … in washed platelets”) (human washed platelets) does the source give for “chlorido [(5-oxo-κO)-7-hydroxy-(2-phenyl)-4H-chromen-4-onato-κO] (η6-p-cymene)ruthenium(II) [Ru-chrysin]” here?
**A.** inhibited CRP-XL-induced platelet aggregation in a concentration-dependent manner

**Q.** And the “effect on platelet aggregation at lower concentrations” value ([1]; 6.25 μM and 12.5 μM compound)?
**A.** did not significantly affect the platelet aggregation

**Q.** What about the “concentrations that significantly inhibit α-granule secretion” value [2] of the same molecule?
**A.** ≥ 25 µM

**Q.** And the “concentrations with significantly more effects on fibrinogen binding than the respective concentrations of chrysin” value [3]?
**A.** more than 25 μM

**Q.** `Cc1ccc(C(C)C)cc1.Cc1ccc(C(C)C)cc1.[Cl-].[Cl-].[Cl-].[Cl-].[Ru+2].[Ru+2]` [Ru-Cl, bis [dichlorido (η^6-p-cymene)] ruthenium(II), reference compound] was tested. Which “effect … in washed platelets” value (human washed platelets) did it give?
**A.** failed to affect platelet aggregation

**Q.** What about the “effect on platelet aggregation in PRP” value [1] of the same molecule?
**A.** failed to show any inhibitory effects

**Q.** With `Oc1cc(O)c2c(=S)cc(-c3ccccc3)oc2c1` [thio-chrysin] as the molecule, how does the “effect … in washed platelets” value (human washed platelets) read?
**A.** no significant differences

**Q.** What about the “effect on clot retraction” value [4] of the same molecule?
**A.** significant inhibitory effect

**Q.** What about the “concentrations that significantly inhibit α-granule secretion” value [2] of the same molecule?
**A.** ≥ 25 µM
